Results from ChEMBL document CHEMBL4765494, “A role of flavonoids in cytochrome c-cardiolipin interactions” (Bioorg Med Chem, 2021).

What was measured:
[1] = biological target: Cytochrome c (Homo sapiens) (UniProt P99999); experiment: Inhibition of cytochrome c (unknown origin) assessed as reduction reduction of cyt c from its ferric state to ferrous state at 10 uM incubated for 20 mins in presence of cardiolipin by UV-vis Spectrophotometric assay relative to control
[2] = Octanol-water distribution coefficient, log D of the compound at pH 7.4 after 1 hr by UV-VIS spectroscopic analysis; assay type: physicochemical
[3] = biological target: Cytochrome c (Homo sapiens) (UniProt P99999); experiment: Inhibition of cytochrome c (unknown origin) assessed as reduction in cyt c-CL peroxidase activity at 10 uM up to 20 mins in presence of cardiolipin by Amplex red staining based fluorescence assay relative to control; settings: time min <=20
[4] = biological target: Cytochrome c (Homo sapiens) (UniProt P99999); experiment: Inhibition of cytochrome c (unknown origin) assessed as reduction in cyt c-CL complex formation at 10 uM incubated for 15 mins in presence of cardiolipin by Trp-59 fluorescence assay relative to control
[5] = biological target: Cytochrome c (Homo sapiens) (UniProt P99999); experiment: Inhibition of cytochrome c (unknown origin) assessed as reduction reduction of cyt c from its ferric state to ferrous state incubated for 20 mins in presence of cardiolipin by UV-vis Spectrophotometric assay
[6] = biological target: Cytochrome c (Homo sapiens) (UniProt P99999)
Description: Inhibition of cytochrome c (unknown origin) assessed as half-time reaction

[7] = biological target: Cytochrome c (Homo sapiens) (UniProt P99999); experiment: Inhibition of cytochrome c (unknown origin) assessed as pseudo first order rate constant

Cytochrome c (Homo sapiens), sequence (P99999 whole entry): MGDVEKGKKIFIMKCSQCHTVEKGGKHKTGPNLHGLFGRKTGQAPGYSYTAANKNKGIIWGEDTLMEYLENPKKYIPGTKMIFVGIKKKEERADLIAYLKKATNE

| SMILES | inhibition [1] [%] | logD at 1 h [2] | inhibition [3] [%] | inhibition [4] [%] | K [5] [M⁻¹ s⁻¹] | T1/2 [6] [min] | K [7] [min⁻¹] |
| --- | --- | --- | --- | --- | --- | --- | --- |
| C[C@@H]1O[C@@H](OC[C@H]2O[C@@H](Oc3c(-c4ccc(O)c(O)c4)oc4cc(O)cc(O)c4c3=O)[C@H](O)[C@@H](O)[C@@H]2O)[C@H](O)[C@H](O)[C@H]1O [RUTIN] | 19 | -0.67 | 28 | 66 |  |  |  |
| O=c1c(O)c(-c2cc(O)c(O)c(O)c2)oc2cc(O)cc(O)c12 [MYRICETIN] | 90 | 0.91 | 81 | 91 | 1030 | 0.08 |  |
| O=c1c(-c2ccc(O)cc2)coc2cc(O)ccc12 | 5.8 |  | 43 |  |  |  |  |
| O=c1cc(-c2ccc(O)c(O)c2)oc2cc(O)cc(O)c12 [LUTEOLIN] | 32 | 2.7 | 71 | 84 |  | 11 | 0.033 |
| Oc1cc(O)c2c(c1)O[C@H](c1ccc(O)c(O)c1)[C@@H](O)C2 [CIANIDANOL] | 61 | 0.01 | 90 |  | 2 |  | 0.13 |
| O=c1c(-c2ccc(O)cc2)coc2cc(O)cc(O)c12 [GENISTEIN] | 0 | 2.68 | 51 | 50 |  |  |  |
| O=c1c(O)c(-c2ccc(O)cc2)oc2cc(O)cc(O)c12 [KAEMPFEROL] | 83 | 3.39 | 70 | 83 | 92 | 1.2 |  |
| COc1ccc([C@@H]2CC(=O)c3c(O)cc(O)cc3O2)cc1O [HESPERETIN] | 7.8 | 2.22 | 57 | 71 | 0.1 |  |  |
| C[C@@H]1O[C@@H](O[C@H]2[C@H](Oc3cc(O)c4c(c3)O[C@H](c3ccc(O)cc3)CC4=O)O[C@H](CO)[C@@H](O)[C@@H]2O)[C@H](O)[C@H](O)[C@H]1O [NARINGIN] | 27 | -0.87 | 54 | 81 |  |  |  |
| O=C1C[C@@H](c2ccc(O)cc2)Oc2cc(O)cc(O)c21 [NARINGENIN] | 7.3 | 2.35 | 46 | 60 | 0.002 |  |  |
| O=C1C[C@@H](c2ccccc2)Oc2ccccc21 | 12 | 2.95 | 47 | 67 |  |  |  |
| COc1ccc(-c2coc3cc(O)cc(O)c3c2=O)cc1 [BIOCHANIN] | 23 | 2.82 | 32 | 37 |  |  |  |
| O=c1cc(-c2ccccc2)oc2cc(O)c(O)c(O)c12 [BAICALEIN] | 79 | 2.51 | 71 | 91 |  |  |  |
| O=c1cc(-c2ccccc2)oc2ccccc12 | 0 |  | 50 | 87 |  |  |  |
| O=C(O[C@@H]1Cc2c(O)cc(O)cc2O[C@@H]1c1cc(O)c(O)c(O)c1)c1cc(O)c(O)c(O)c1 [EPIGALOCATECHIN GALLATE] | 62 | 0.04 | 50 | 63 |  | 1.3 |  |
| O=C1c2c(O)cc(O)cc2O[C@H](c2ccc(O)c(O)c2)[C@H]1O [(+)-TAXIFOLIN] | 36 | 0.67 | 67 | 58 | 1 |  | 0.067 |
| O=c1c(O)c(-c2ccc(O)c(O)c2)oc2cc(O)ccc12 [FISETIN] | 73 | 2.29 | 81 | 85 | 220 |  |  |
